Data set [1] has as its system Mus musculus. The experiment in a line: Tested for inhibitory activity after administration of compound at 50 mg/kg perorally using AcOH writhing method. Type of data set: functional. Conditions: route oral.
A short description of data set [2]: Tested for acute toxicity after administration of compound at 50 mg/kg intraperitoneally in mice. Type of data set: organism-based. The arrangement: dose 50 mg/kg, route intraperitoneal. Conditions: mouse, in vivo, ip.
Data set [3] relates to Rattus norvegicus. Description: Percent inhibition of carrageenan induced rat paw edema 3 hr after a peroral administration of 50 mg/kg. To be noted: route oral. Type of data set: functional.
For data set [4], the system named is Rattus norvegicus. Description: Percent inhibition of carrageenan induced rat paw edema 3 hr after a peroral administration of 20 mg/kg. Type of data set: functional. Conditions: route oral.
The subject of data set [5] is Rattus norvegicus. The experiment in a line: Percent inhibition of carrageenan induced rat paw edema 3 hr after a peroral administration of 10 mg/kg. The class given is functional. To be noted: route oral.
The test system of data set [6] is Rattus norvegicus. Description: Percent inhibition after administration at 2 mg/kg perorally using carrageenan induced rat paw edema method. Type of data set: functional. To be noted: route oral.
The subject of data set [7] is Rattus norvegicus. The experiment in a line: Percent inhibition of carrageenan induced rat paw edema 3 hr after a peroral administration of 0.5 mg/kg. The class given is functional. Conditions: route oral.

A value given as a limit tells only on which side of the number the result lay.

Turning to `COc1cccc(CC(=O)O)c1-c1ccc(Cl)cc1`, the ED50 in data set [1] is above 50 mg/kg. In data set [2], the LD50 stood at 566 mg/kg. The compound also yielded an inhibition in vivo at 50 mg/kg in data set [3] of 0%.
`COc1ccc(CC(=O)O)c(-c2ccc(Cl)cc2)c1`: the ED50 in data set [1] was above 50 mg/kg. The same compound had an LD50 in data set [2] of 566 mg/kg. The inhibition in vivo at 50 mg/kg in data set [3] is 0%.
Compound `COc1ccc(CC(=O)O)cc1-c1ccc(Cl)cc1` showed an ED50 in data set [1] of 26.7 mg/kg. Besides, in data set [2], the LD50 is 673 mg/kg. The same compound showed an inhibition in vivo at 20 mg/kg in data set [4] of 19%. Further, in data set [3], at 50 mg/kg the inhibition in vivo was 49%.
In turn, `COc1cc(CC(=O)O)cc(-c2ccc(Cl)cc2)c1` came in with an ED50 in data set [1] of 16.1 mg/kg. In addition, in data set [2], the LD50 stood at 570 mg/kg. In data set [5], this compound displayed an inhibition in vivo at 10 mg/kg of 39%. The inhibition in vivo at 20 mg/kg in data set [4] worked out at 65%. The compound also registered an inhibition in vivo at 50 mg/kg in data set [3] of 53%.
In data set [1], `COc1c(CC(=O)O)cccc1-c1ccc(Cl)cc1` showed an ED50 above 50 mg/kg. The same compound registered an LD50 in data set [2] of 283 mg/kg. The compound also gave an inhibition in vivo at 50 mg/kg in data set [3] of 16%.
In data set [1], `COc1cccc(-c2ccc(Cl)cc2)c1CC(=O)O` had an ED50 above 50 mg/kg. The compound further gave an LD50 in data set [2] of 476 mg/kg. The inhibition in vivo at 50 mg/kg in data set [3] turned out to be 0%.
In the case of `COc1ccc2c(c1)c(CC(=O)O)c(C)n2C(=O)c1ccc(Cl)cc1` [INDOMETHACIN], testing at 50 mg/kg in data set [3] gave an inhibition in vivo of 45%. Also, the inhibition in vivo at 2 mg/kg in data set [6] came out at 25%. The compound also gave an inhibition in vivo at 0.5 mg/kg in data set [7] of 19%.
In turn, `COc1cc(CC(=O)O)ccc1-c1ccc(Cl)cc1` came in with an ED50 in data set [1] of 35.1 mg/kg. For the same compound, in data set [2], the LD50 is 238 mg/kg. This compound also came in with an inhibition in vivo at 20 mg/kg in data set [4] of 27%. In addition, the inhibition in vivo at 50 mg/kg in data set [3] stood at 38%.
For `COc1ccc(-c2ccc(Cl)cc2)cc1CC(=O)O`, in data set [1], the ED50 is above 50 mg/kg. For the same compound, the LD50 in data set [2] came out at 566 mg/kg. Moreover, the inhibition in vivo at 50 mg/kg in data set [3] is 0%.
In turn, `COc1ccc(-c2ccc(Cl)cc2)c(CC(=O)O)c1` registered an ED50 in data set [1] above 50 mg/kg. Moreover, the 50% lethal dose (LD50) in data set [2] amounted to 566 mg/kg. The compound further returned an inhibition in vivo at 50 mg/kg in data set [3] of 13%.
`COc1cc(-c2ccc(Cl)cc2)ccc1CC(=O)O`: the ED50 in data set [1] was above 50 mg/kg. Also, the LD50 in data set [2] turned out to be 400 mg/kg. In data set [3], this compound yielded an inhibition in vivo at 50 mg/kg of 27%.

(Values after ChEMBL document CHEMBL1121852, “Nonsteroidal antiinflammatory agents. 3. Synthesis of the positional isomers of 4'-chloro-5-methoxy-3-biphenylylacetic acid and their antiinflammatory and analgesic activities” (J Med Chem, 1981).)
